Laboratory results: PubChem BioAssay (NCI)
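Five concentrations, 48 hours, 96-well plates. GI50 is the concentration that inhibits growth by half. TGI is the concentration that stops growth completely.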

Columns and labels:
Assay in all cases: NCI-60 cell line screen, 48 h
786-0 renal = system: 786-0 renal
A498 renal = system: A498 renal
A549 NSCLC = system: A549 NSCLC
ACHN renal = system: ACHN renal
BT-549 breast = system: BT-549 breast
CAKI-1 renal = system: CAKI-1 renal
CCRF-CEM leukemia = system: CCRF-CEM leukemia
COLO 205 colon = system: COLO 205 colon
DU-145 prostate = system: DU-145 prostate
EKVX NSCLC = system: EKVX NSCLC
HCC-2998 colon = system: HCC-2998 colon
HCT-116 colon = system: HCT-116 colon
HCT-15 colon = system: HCT-15 colon
HL-60(TB) leukemia = system: HL-60(TB) leukemia
HOP-62 NSCLC = system: HOP-62 NSCLC
HOP-92 NSCLC = system: HOP-92 NSCLC
HS 578T breast = system: HS 578T breast
HT29 colon = system: HT29 colon
IGROV1 ovarian = system: IGROV1 ovarian
K-562 leukemia = system: K-562 leukemia
KM12 colon = system: KM12 colon
LOX IMVI melanoma = system: LOX IMVI melanoma
M14 melanoma = system: M14 melanoma
MALME-3M melanoma = system: MALME-3M melanoma
MCF7 breast = system: MCF7 breast
MDA-MB-435 = system: MDA-MB-435
MDA-MB-468 breast = system: MDA-MB-468 breast
MOLT-4 leukemia = system: MOLT-4 leukemia
NCI-H226 lung = system: NCI-H226 lung
NCI-H23 lung = system: NCI-H23 lung
NCI-H460 lung = system: NCI-H460 lung
NCI-H522 lung = system: NCI-H522 lung
NCI/ADR-RES ovarian = system: NCI/ADR-RES ovarian
OVCAR-3 ovarian = system: OVCAR-3 ovarian
OVCAR-4 ovarian = system: OVCAR-4 ovarian
OVCAR-5 ovarian = system: OVCAR-5 ovarian
OVCAR-8 ovarian = system: OVCAR-8 ovarian
PC-3 prostate = system: PC-3 prostate
RPMI-8226 leukemia = system: RPMI-8226 leukemia
RXF 393 renal = system: RXF 393 renal
SF-268 CNS = system: SF-268 CNS
SF-295 CNS = system: SF-295 CNS
SF-539 CNS = system: SF-539 CNS
SK-MEL-28 melanoma = system: SK-MEL-28 melanoma
SK-MEL-5 melanoma = system: SK-MEL-5 melanoma
SK-OV-3 ovarian = system: SK-OV-3 ovarian
SN12C renal = system: SN12C renal
SNB-19 CNS = system: SNB-19 CNS
SR leukemia = system: SR leukemia
SW-620 colon = system: SW-620 colon
T-47D breast = system: T-47D breast
TK-10 renal = system: TK-10 renal
U251 CNS = system: U251 CNS
UACC-257 melanoma = system: UACC-257 melanoma
UACC-62 melanoma = system: UACC-62 melanoma

`O=C(Nc1nc2ccc([N+](=O)[O-])cc2s1)Nc1cc(Cl)ccc1I` gave a GI50 (786-0 renal) of 7.32 µM, a TGI (786-0 renal) of 20.2 µM and a GI50 (A498 renal) of 4.25 µM. The TGI (A498 renal) was 16.1 µM, the GI50 (A549 NSCLC) was 9.8 µM and the TGI (A549 NSCLC) was 21.6 µM. It also gave a GI50 (ACHN renal) of 5.29 µM, a TGI (ACHN renal) of 17.4 µM and a GI50 (BT-549 breast) of 3.56 µM. The TGI (BT-549 breast) was 14.5 µM, the GI50 (CAKI-1 renal) was 5.87 µM and the TGI (CAKI-1 renal) was 19.3 µM. It also gave a GI50 (CCRF-CEM leukemia) of 3.4 µM, a TGI (CCRF-CEM leukemia) of 12.4 µM and a GI50 (COLO 205 colon) of 10.8 µM. The TGI (COLO 205 colon) was 22.9 µM, the GI50 (DU-145 prostate) was 8.17 µM and the TGI (DU-145 prostate) was 20.6 µM. The GI50 (EKVX NSCLC) was 3.6 µM, the TGI (EKVX NSCLC) was 13.6 µM and the GI50 (HCC-2998 colon) was 4.7 µM. The TGI (HCC-2998 colon) was 16.2 µM, the GI50 (HCT-116 colon) was 3.24 µM and the TGI (HCT-116 colon) was 12 µM. The GI50 (HCT-15 colon) was 4.04 µM, the TGI (HCT-15 colon) was 15.6 µM and the GI50 (HL-60(TB) leukemia) was 3.81 µM. It also gave a TGI (HL-60(TB) leukemia) of 16.8 µM, a GI50 (HOP-62 NSCLC) of 9.29 µM and a TGI (HOP-62 NSCLC) of 21.7 µM. For the same compound, the GI50 (HOP-92 NSCLC) was 2.63 µM, the TGI (HOP-92 NSCLC) was 7.46 µM and the GI50 (HS 578T breast) was 4.71 µM. It also gave a TGI (HS 578T breast) of 20.8 µM, a GI50 (HT29 colon) of 11.4 µM and a TGI (HT29 colon) of 24.2 µM. It also gave a GI50 (IGROV1 ovarian) of 4.49 µM, a TGI (IGROV1 ovarian) of 15.8 µM and a GI50 (K-562 leukemia) of 3.55 µM. For the same compound, the TGI (K-562 leukemia) was 13.6 µM, the GI50 (KM12 colon) was 5.29 µM and the TGI (KM12 colon) was 17.7 µM. For the same compound, the GI50 (LOX IMVI melanoma) was 5.85 µM, the TGI (LOX IMVI melanoma) was 18.1 µM and the GI50 (M14 melanoma) was 10 µM. It also gave a TGI (M14 melanoma) of 22 µM, a GI50 (MALME-3M melanoma) of 3.26 µM and a TGI (MALME-3M melanoma) of 13.1 µM. For the same compound, the GI50 (MCF7 breast) was 3.05 µM, the TGI (MCF7 breast) was 12.1 µM and the GI50 (MDA-MB-435) was 6.4 µM. The TGI (MDA-MB-435) was 21 µM, the GI50 (MDA-MB-468 breast) was 3.54 µM and the TGI (MDA-MB-468 breast) was 10.6 µM. For the same compound, the GI50 (MOLT-4 leukemia) was 3.43 µM, the TGI (MOLT-4 leukemia) was 12 µM and the GI50 (NCI-H226 lung) was 7.18 µM. For the same compound, the TGI (NCI-H226 lung) was 20.5 µM, the GI50 (NCI-H23 lung) was 2.78 µM and the TGI (NCI-H23 lung) was 8.9 µM. The GI50 (NCI-H460 lung) was 4.16 µM, the TGI (NCI-H460 lung) was 15.7 µM and the GI50 (NCI-H522 lung) was 2.95 µM. It also gave a TGI (NCI-H522 lung) of 10.6 µM, a GI50 (NCI/ADR-RES ovarian) of 4.85 µM and a TGI (NCI/ADR-RES ovarian) of 18.1 µM. For the same compound, the GI50 (OVCAR-3 ovarian) was 4.29 µM, the TGI (OVCAR-3 ovarian) was 14.8 µM and the GI50 (OVCAR-4 ovarian) was 5.28 µM. It also gave a TGI (OVCAR-4 ovarian) of 19.3 µM, a GI50 (OVCAR-5 ovarian) of 11.6 µM and a TGI (OVCAR-5 ovarian) of 23.9 µM. For the same compound, the GI50 (OVCAR-8 ovarian) was 12.9 µM, the TGI (OVCAR-8 ovarian) was 26.7 µM and the GI50 (PC-3 prostate) was 3.78 µM. The TGI (PC-3 prostate) was 13.5 µM, the GI50 (RPMI-8226 leukemia) was 2.24 µM and the TGI (RPMI-8226 leukemia) was 5.66 µM. It also gave a GI50 (RXF 393 renal) of 7.38 µM, a TGI (RXF 393 renal) of 20.3 µM and a GI50 (SF-268 CNS) of 9.35 µM. The TGI (SF-268 CNS) was 23.9 µM, the GI50 (SF-295 CNS) was 5.56 µM and the TGI (SF-295 CNS) was 18.6 µM. The GI50 (SF-539 CNS) was 5.09 µM, the TGI (SF-539 CNS) was 17 µM and the GI50 (SK-MEL-28 melanoma) was 4.75 µM. It also gave a TGI (SK-MEL-28 melanoma) of 16.6 µM, a GI50 (SK-MEL-5 melanoma) of 2.7 µM and a TGI (SK-MEL-5 melanoma) of 7.52 µM. For the same compound, the GI50 (SK-OV-3 ovarian) was 7.84 µM, the TGI (SK-OV-3 ovarian) was 20.4 µM and the GI50 (SN12C renal) was 4.06 µM. For the same compound, the TGI (SN12C renal) was 15.8 µM, the GI50 (SNB-19 CNS) was 5.5 µM and the TGI (SNB-19 CNS) was 18.1 µM. It also gave a GI50 (SR leukemia) of 3.16 µM, a TGI (SR leukemia) of 12.4 µM and a GI50 (SW-620 colon) of 5.46 µM. It also gave a TGI (SW-620 colon) of 18.6 µM, a GI50 (T-47D breast) of 3.7 µM and a TGI (T-47D breast) of 14.5 µM. For the same compound, the GI50 (TK-10 renal) was 8.2 µM, the TGI (TK-10 renal) was 20.7 µM and the GI50 (U251 CNS) was 5.36 µM. For the same compound, the TGI (U251 CNS) was 17.8 µM, the GI50 (UACC-257 melanoma) was 6.8 µM and the TGI (UACC-257 melanoma) was 19.9 µM. For the same compound, the GI50 (UACC-62 melanoma) was 4.11 µM and the TGI (UACC-62 melanoma) was 15.4 µM.
